“And” between values parts separate entries of the source, which are not always exact repeats. Identical values can stand only once. Like-named read-outs stand apart in the source and are kept apart here. Marks after values point to notes of the source that are not given here.
Key:
NFκB = NFκB inhibition (LPS-induced); assay type: cell-based; details: in words
Description: A focused library of alkyl or acyl c-substituted lysine-spermine conjugates is synthesized with even carbon-numbered chains of C14 to C20 lengths. […] Furthermore, the data showhigh activity compounds are those with chain lengths between C16 and C20. […] The exemplary compounds L-Lys-ε-(stearoyl)-N^1-spermine, D-Lys-ε-(stearoyl)-N^1-spermine, L-Lys-ε-(octadecanyl)-N^1-spermine and D-Lys-ε-(octadecanyl)—N1-spermine all show high activity for the prevention of LPS-induced NFκβ cytokine release from stimulated lymphocytes. Furthermore, the exemplary compounds L-Lys-ε-(stearoyl)-N^1-spermine, D-Lys-ε-(stearoyl)-N^1-spermine, L-Lys-ε-(octadecanyl)-N^1-spermine and D-Lys-ε-(octadecanyl)-N^1-spermine all show high activity for the prevention of LPS-induced NO release from stimulated lymphocytes.

CF-1 mice = assay: Mouse lethality model of endotoxic shock (D-galactosamine sensitized, LPS challenge); assay type: in vivo; details: for time window of protection, in words: 200 ng/mouse LPS
Protocol: Based on the results of the displacement assays, NO and cytokine inhibition data, 8 is elected for detailed evaluation in animal experiments. […] In all experiments reported herein, a supralethal dose of 200 ng per mouse, in a final volume of 0.2 ml saline is used. The dose-response of protection afforded by 8 is depicted in Table 4. Previous studies with labile spermine conjugates such as DOSPER^37 had shown the window of protection to be very short, a 15 minute window of protection. Compound 8, with its greater anticipated hydrolytic stability, is examined to see if it affords a more extended time-window of protection. 200 μg of 8 in a final volume of 0.2 ml injections are administered intraperitoneally at times of −6, −4, −2, 0, +1, and +2 relative to time-zero, the time at which all mice are challenged with 200 ng/mouse LPS injections. […] Testing to see if in this treatment regime, which is characterized by a slow, gradual systemic absorption from the site of injection, a longer duration of protection would be observed is carried out. Lethality is once again assessed 24 hours following the final injection.
Female, outbred, 9- to 11-week-old CF-1 mice (Charles River, Wilmington, Mass.) weighing 22-28 g are used as described elsewhere.^37 Upon arrival, the mice are allowed to acclimatize for a week prior to experimentation, housed 5 per cage in a controlled environment at the AALAC-accredited University of Kansas Animal Care Facility, and allowed access to mouse chow and water ad libitum. […] In experiments designed to test dose-response effects of the acyl-spermines in affording protection against LPS-induced lethality, mice receive graded doses of compound diluted in saline, i.p., in one flank, immediately before a supralethal (200 ng) LPS challenge, which is administered as a separate i.p. injection into the other flank. In experiments in which the temporal window of protection is to be examined, a fixed dose of 200 μg/mouse of compound is administered at various times, before, or after supralethal (200 ng/mouse) LPS challenge. Lethality is determined at 24 h post LPS challenge.

[1] = system: murine macrophage J774.A1 cells; assay: Nitric oxide (NO) inhibition in LPS-stimulated J774.A1 cells (Griess); assay type: cell-based
Protocol: Murine monocytes (J774.A1 cells) produce measurable quantities of NO on exposure to LPS and provide a model for the rapid assessment of compounds to neutralize LPS activity. […] In all experiments, Polymyxin B (PMB), a decapeptide antibiotic, known to bind and neutralize LPS,^29;47;48 is used as a reference compound.
Nitric oxide production is measured as total nitrite in murine macrophage J774.A1 cells using the Griess reagent system.^53;54 Murine macrophage J774.A1 cells are grown in RPMI-1640 cell-culture medium containing L-glutamine and sodium bicarbonate and supplemented with 10% fetal bovine serum, 1% L-glutamine-penicillin-streptomycin solution, and 200 μg/ml L-arginine at 37° C. in a 5% CO2 atmosphere. Cells are plated at ˜2×10^6/ml in a volume of 40 μl/well, in 384 well, flat-bottomed, cell culture treated microtiter plates until confluency and subsequently stimulated with 100 ng/ml lipopolysaccharide (LPS). Concurrent to LPS stimulation, serially diluted concentrations of test compounds are added to the cell medium and left to incubate overnight for 16 h. Polymyxin B is used as reference compound in each plate. Positive—(LPS stimulation only) and negative-controls (J774.A1 medium only) are included in each experiment. Nitrite concentrations are measured adding 30 μl of supernatant to equal volumes of Griess reagents (50 μl/well; 0.1% NED solution in ddH2O and 1% sulfanilamide, 5% phosphoric acid solution in ddH2O) and incubating for 15 minutes at room temperature in the dark. Absorbance at 535 nm is measured using a Molecular Devices Spectramax M2 multifunction plate reader (Sunnyvale, Calif.). Nitrite concentrations are interpolated from standard curves obtained from serially diluted sodium nitrite standards.

## CCCCCCCCCCCCCCCCCC(=O)NCCCCC(N)C(=O)NCCCNCCCCNCCCN [Compound 8, D-Lys-ε-(stearoyl)-N^1-spermine]
NFκB
  prevention of LPS-induced NFκβ cytokine release from stimulated lymphocytes: high activity
CF-1 mice; 10 μg/mouse i.p., immediately before 200 ng/mouse LPS, lethality at 24 h
  No. of live mice/total no. of mice tested: 0/5
CF-1 mice; 50 μg/mouse i.p., immediately before 200 ng/mouse LPS, lethality at 24 h
  No. of live mice/total no. of mice tested: 1/5
CF-1 mice; 100 μg/mouse i.p., immediately before 200 ng/mouse LPS, lethality at 24 h
  No. of live mice/total no. of mice tested: 4/5*
CF-1 mice; 200 μg i.p.
  time window of protection, in words: significant protection up to 6 h prior to LPS challenge
CF-1 mice; 200 μg intraperitoneally at 0 h relative to LPS (200 ng/mouse)
  No. of live mice/total number of mice tested: 4/5*
CF-1 mice; 200 μg intraperitoneally at +1 h relative to LPS (200 ng/mouse)
  No. of live mice/total number of mice tested: 0/5*
CF-1 mice; 200 μg intraperitoneally at +2 h relative to LPS (200 ng/mouse)
  No. of live mice/total number of mice tested: 2/5
CF-1 mice; 200 μg intraperitoneally at −2 h relative to LPS (200 ng/mouse)
  No. of live mice/total number of mice tested: 4/5*
CF-1 mice; 200 μg intraperitoneally at −4 h relative to LPS (200 ng/mouse)
  No. of live mice/total number of mice tested: 4/5*
CF-1 mice; 200 μg intraperitoneally at −6 h relative to LPS (200 ng/mouse)
  No. of live mice/total number of mice tested: 3/5
CF-1 mice; 200 μg subcutaneous
  time window of protection, in words: significant protection even when the compound is administered 16 h ahead of LPS challenge
CF-1 mice; 200 μg subcutaneously at 0 h relative to LPS (200 ng/mouse)
  No. of live mice/total no. of mice tested: 1/5
CF-1 mice; 200 μg subcutaneously at +2 h relative to LPS (200 ng/mouse)
  No. of live mice/total no. of mice tested: 1/5
CF-1 mice; 200 μg subcutaneously at −4 h relative to LPS (200 ng/mouse)
  No. of live mice/total no. of mice tested: 5/5*
CF-1 mice; 200 μg subcutaneously at −8 h relative to LPS (200 ng/mouse)
  No. of live mice/total no. of mice tested: 3 of the 5 and 3/5
CF-1 mice; 200 μg subcutaneously at −12 h relative to LPS (200 ng/mouse)
  No. of live mice/total no. of mice tested: 3 of the 5 and 3/5
CF-1 mice; 200 μg subcutaneously at −16 h relative to LPS (200 ng/mouse)
  No. of live mice/total no. of mice tested: 3 of the 5 and 3/5
CF-1 mice; 200 μg subcutaneously at −24 h relative to LPS (200 ng/mouse)
  No. of live mice/total no. of mice tested: Two of the 5 and 2/5
CF-1 mice; 200 μg/mouse i.p., immediately before 200 ng/mouse LPS, lethality at 24 h
  No. of live mice/total no. of mice tested: 5/5*
[1]; J774.A1 cells, 100 ng/ml LPS, 16 h, Tables 1-3, read-out: NO IC50
  IC50: 1.98 µM
[1]; Table 7 focused library, NO inhibition, read-out: NO
  IC50: 10.3 µM
[1]; in words
  prevention of LPS-induced NO release from J774.A1 macrophages: high activity

Reference: patent publication US20060122279A1, “Hydrophobic polyamine amides as potent lipopolysaccharide sequestrants” (priority 2004, published 2006)
